Results as given in patent US7250402B2, “Avermectin derivatives” (The Kitasato Institute, priority 2000, dated 2007).

What was measured:
Caenorhabditis elegans = test: Antiparasitic activity against Caenorhabditis elegans in 96 well microplate (movement graded 0-3, MIC); type: in vivo; conditions: concentration required to give Indication 2 (or 3) for caenorhabditis elegans; 20° C., observed after 24 and 48 hours
Excerpt: (§1) Methods for determining antiparasitic effects of the compounds disclosed according to the present invention are explained below.
(§2) As model insects for simple determination of antiparasitic and insecticidal activities, those insects are desired which can be easily obtained and bred in laboratories, and have no pathogenicity to a human. Caenorhabditis elegans, an unparasitic eelworm widely used in experiments of genetics, was used as a typical steam worm, and artemia salina used as feed for tropical fish and named Brine shrimp, was used instead of insects.
Preparation of Caenorhabditis elegans Used for Evaluation
Escherichia coli for the feed of caenorhabditis elegans (mutant having uracil requirement) was inoculated in a seed medium for E. coli to which a small amount of uracil was added, and cultured with shaking at 27° C. for 1 day. A petri dish of 6 cm diameter was filled with 10 mL of an agar medium for eelworm proliferation, and the medium was solidified. Then 0.5 mL of the culture of E. coli was spread over the medium in the dish, and the dish was incubated at 37° C. to proliferate E. coli. A piece of the agar was collected with a platinum loop from a petri dish in which caenorhabditis elegans successfully proliferated, and inoculated in petri dishes in which E. coli was proliferated. The petri dishes were incubated at 20° C. to proliferate caenorhabditis elegans. Since the life of eelworm is about 2 weeks, subculture was carried out every once a week. The eelworms grown with spread on the surface of the petri dish after 3 to 5 days from subculture were used for the experiments.
<Preparation of Agar Medium for Eelworm Proliferation>
Solution A was obtained by dissolving 0.3% of sodium chloride, 1.7% of bact-agar (DIFCO Co.), 0.5% of bact-peptone (DIFCO Co.) and 1.0% of yeast extract (DIFCO Co.) in distilled water.
Solution B was obtained by dissolving 0.5% of cholesterol in ethanol.
Solution C was obtained by dissolving 13.9% of calcium chloride in distilled water.
Solution D was obtained by dissolving 30.8% of magnesium sulfate heptahydrate in distilled water.
Solution E was obtained by dissolving 13.54% of KH2PO4 and 4.45% of K2HPO4 in distilled water.
The aforementioned Solutions A, C and D were sterilized in an autoclave at 121° C. for 20 minutes, and each solution was stored at 4° C.
The agar medium for eelworm proliferation was prepared by mixing the solutions in the following proportion: Solution A: 100 mL, Solution B: 0.1 mL, Solution C: 0.05 mL, Solution D: 0.1 mL and Solution E: 2.5 mL (without pH adjustment), and dispensing each 10 mL portion into petri dishes of 60×15 mm.
<Preparation of E. coli Seed Medium>
In distilled water, 2.0% of bact-trypton (DIFCO Co.), 0.55% of sodium chloride and 0.001% of uracil (SIGMA Co., pH 7.4) were dissolved, and the solution was sterilized in an autoclave at 121° C. for 20 minutes.
(§3) Each well of a 96 well microplate was filled with the solution of the test compound (methanol as a solvent), and the solvent was removed using a vacuum pump, then 250 μl of the assay medium was added to each wells (the assay medium was prepared by dissolving 7.5 mM sodium hydrogencarbonate, 7.5 mM potassium chloride, 7.5 mM calcium chloride dihydrate and 7.5 mM magnesium sulfate heptahydrate in distilled water and adding 0.01% of lecithin to the solution), and then the microplate was shaken using a microplate mixer for 15 minutes. To each well, a few individuals of caenorhabditis elegans were added by softly rubbing the surface of the agar using a toothpick, or a few individuals of artemia salina were added together with 50 μl of the buffer. The microplate was incubated at 20° C., and then the insects were observed after 24 and 48 hours under a microscope (magnification of 40×). The results were compared to those obtained without addition of the test compound, and evaluated by 4 grades.
(§4) The evaluation results were shown by indications of 4 grades from 0 to 3.
1: A little week movements […]

artemia salina = test: Insecticidal model activity against artemia salina (Brine shrimp) in 96 well microplate (movement graded 0-3, MIC); type: in vivo; conditions: concentration required to give Indication 2 (or 3) for artemia salina; 20° C., observed after 24 and 48 hours
Excerpt: as §1, §2
<Preparation of Artemia salina Used for Evaluation>
To a buffer for artemia salina (obtained by dissolving 0.24% of Tris, 2.57% of sodium chloride, 0.47% of magnesium chloride, 0.07% of potassium chloride, 0.02% of sodium carbonate, 0.64% of magnesium sulfate and 0.11% of calcium chloride in distilled water and adjusting the pH to 7.1 with hydrochloric acid), dried eggs of artemia salina [Tetra Brine Shrimp Eggs, Warner Lambert Co.] were added. The noprius larvae 1 or 2 days after hatching were used for the experiments.
as §3, §4
1: A little week movements
Of the 4 grades, Indications 3 and 2 were judged as effective, and Indications 1 and 0 as ineffective. In Table 7, the values for each compound are minimum inhibitory concentrations (MIC) which were required to give Indication 2 (or 3) for caenorhabditis elegans or artemia salina. In Table 7, caenorhabditis elegans and artemia salina are abbreviated as C.E. and A.S., respectively.

For `CC[C@H](C)[C@H]1O[C@]2(C=C[C@@H]1C)C[C@@H]1C[C@@H](C/C=C(\C)[C@@H](O[C@H]3C[C@H](OC)[C@@H](O)[C@H](C)O3)[C@@H](C)/C=C/C=C3\CO[C@@H]4[C@H](O)C(C)=C[C@@H](C(=O)O1)[C@]34O)O2` [Avermectin B1a monosaccharide, avermectin B1a monosaccharide], the “C.E. minimum inhibitory concentrations (MIC)” value (Caenorhabditis elegans) was 2 ng/mL and the “A.S. minimum inhibitory concentrations (MIC)” value (artemia salina) was 2 ng/mL.

`CCC(C)C1O[C@]2(C=C[C@@H]1C)C[C@@H]1CC(C/C=C(\C)[C@@H](OC3C[C@H](OC)[C@@H](OC4C[C@H](OC)[C@@H](O)[C@H](C)O4)[C@H](C)O3)[C@@H](C)/C=C/C=C3\COC4[C@H](O)C(C)=CC(C(=O)O1)[C@]34O)O2` (stereo partly drawn) [Avermectin B1a] was tested, and the “C.E. minimum inhibitory concentrations (MIC)” value (Caenorhabditis elegans) was 2 ng/mL and the “A.S. minimum inhibitory concentrations (MIC)” value (artemia salina) was 0.5 ng/mL.

`CCC(C)C1OC2(C=C[C@@H]1C)CC1CC(C/C=C(\C)C(O[C@H]3CC(OC)C(=CC(=O)O)C(C)O3)[C@@H](C)/C=C/C=C3\COC4C(O)C(C)=CC(C(=O)O1)[C@]34O)O2` (stereo partly drawn) [Compound 6] was tested, and the “C.E. minimum inhibitory concentrations (MIC)” value (Caenorhabditis elegans) was 2 ng/mL and the “A.S. minimum inhibitory concentrations (MIC)” value (artemia salina) was 2 ng/mL.

For `CCC(C)C1OC2(CC[C@@H]1C)CC1CC(C/C=C(\C)C(O[C@H]3CC(OC)C(=CC#N)C(C)O3)[C@@H](C)/C=C/C=C3\COC4C(O)C(C)=CC(C(=O)O1)[C@]34O)O2` (stereo partly drawn) [Compound 22], the “C.E. minimum inhibitory concentrations (MIC)” value (Caenorhabditis elegans) was 2 ng/mL and the “A.S. minimum inhibitory concentrations (MIC)” value (artemia salina) was 2 ng/mL.

With `CCC(C)C1OC2(CCC1C)CC1CC(CC=C(C)C(OC3CC(OC)C(O)C(C)O3)C(C)C=CC=C3COC4C(O)C(C)=CC(C(=O)O1)C34O)O2` (stereo not drawn) [Ivermectin monosaccharide, 22,23-dihydroavermectin B1a monosaccharide] the “C.E. minimum inhibitory concentrations (MIC)” value (Caenorhabditis elegans) was 2 ng/mL and the “A.S. minimum inhibitory concentrations (MIC)” value (artemia salina) was 2 ng/mL.

Ivermectin was tested, and the “C.E. minimum inhibitory concentrations (MIC)” value (Caenorhabditis elegans) was 2 ng/mL and the “A.S. minimum inhibitory concentrations (MIC)” value (artemia salina) was 2 ng/mL.
